Data from US9669199B2, “Biosynchronous transdermal drug delivery for longevity, anti-aging, fatigue management, obesity, weight loss, weight management, delivery of nutraceuticals, and the treatment of hyperglycemia, alzheimer's disease, sleep disorders, parkinson's disease, aids, epilepsy, attention deficit disorder, …” (Chrono Therapeutics Inc., priority 2004, dated 2017).
Like-named read-outs stand apart in the source and are kept apart here.

What was measured:
[1] = in vivo; cited from earlier work
[2] = test system: humans subjected to simulated night shift work; settings: cited from earlier work
rhesus monkeys = settings: sleep deprivation; cited from earlier work
[3] = test system: children aged 7 to 15 with ADHD; settings: cited from earlier work; for ADHD symptoms and global ratings: parent and clinician ratings, 9 weeks
[4] = in vivo; cited from earlier work; remark: listed apart in the source
[5] = test system: metastatic renal cell carcinoma; settings: continuous infusion, 70% of the daily dose between 15:00 h and 21:00 h; cited from earlier work
arthritis = settings: night versus 8:00 am; cited from earlier work
helicopter pilots = settings: 600 mg in three doses, 8 hours of sleep in an 88 hour period; cited from earlier work
[6] = test system: sleep-deprived F-117 pilots; settings: 300 mg in three divided 100-mg doses; cited from earlier work
[7] = human cadaver skin dermatomed to 0.5 mm, 10 cm^2, 100 mg/ml in ethanol/water 1/1, 200 ul doses, EVA membrane
Protocol: The area of skin permeation was 10 cm^2. […] Each time, 200 µl of formulation was dispensed on a 10 cm^2 surface area of interface of diffusion, separated from the skin by the EVA membrane. […] Additionally, the dose quantity was strictly controlled and monitored. Drug flux samples were obtained using a flow-through Franz cell permeation system with samples collected every 15 minutes. Hourly time point samples were analyzed and recorded. Samples were analyzed by UV/Vis spectrophotometry.

[8] = low, medium and high concentrations, 16 hours, 12 human subjects
Protocol: The device, described herein, was tested on 12 healthy male volunteers for an open, three-periods, single center, dose-escalation study using nicotine as the model compound.

[9] = oral dosing with 5 mg or transdermally with 39 mg; cited from earlier work
[10] = evening versus morning; cited from earlier work
smoking = settings: in vivo; cited from earlier work

## O=C(C[S+]([O-])C(c1ccccc1)c1ccccc1)NO (stereo not shown) [Adrafinil]
[1]
  half-life: about 60 minutes
  time to peak concentration: about 60 minutes

## O=C(c1ccc2nonc2c1)N1CCOCC1 [CX717]
[2]
  cognitive performance: did not improve cognitive performance
Rhesus monkeys
  performance after receiving the drug: performed faster and better

## CNCC[C@@H](Oc1ccccc1C)c1ccccc1 [atomoxetine]
[3]; in vivo
  tolerability: well tolerated
[3]
  ADHD symptoms and global ratings: associated with reductions in ADHD symptoms and improved global ratings
[4]
  half-life average: 3.12 h
  time of peak plasma concentration after dosing: 1 to 2 h

## O=c1[nH]c(=O)n([C@H]2C[C@H](O)[C@@H](CO)O2)cc1F [fluorodeoxyuridine]
[5]
  objective response: 29%

## COc1ccc2c(c1)c(CC(=O)O)c(C)n2C(=O)c1ccc(Cl)cc1 [indomethacin]
arthritis
  efficacy and patient compliance by time of dosing: better efficacy and patient compliance when dosed at night than when dosed at 8:00 am

## COC(=O)C(c1ccccc1)C1CCCCN1 (stereo not shown) [methylphenidate]
[3]; atomoxetine twice daily, methylphenidate 2 or 3 times daily
  tolerability: well tolerated
[3]
  ADHD symptoms and global ratings: associated with reductions in ADHD symptoms and improved global ratings

## NC(=O)C[S+]([O-])C(c1ccccc1)c1ccccc1 (stereo not shown) [modafinil]
Helicopter pilots
  alertness of pilots: can be used to keep pilots alert
[6]
  flight control accuracy sustained to within percent of baseline levels: about 27%

## CN1CCCC1c1cccnc1 (stereo not shown) [nicotine]
[7]
  maximum transdermal flux value: 160 ng/cm^2/hr
[8]
  blood plasma concentration profile: clear and distinct peaks and troughs of therapeutically effective and well-targeted blood plasma concentration levels

## CCN(CC)CC#CCOC(=O)C(O)(c1ccccc1)C1CCCCC1 (stereo not shown) [oxybutynin]
[9]
  mean maximum blood plasma concentration: 3 ng/mL

## CCCC(CCC)C(=O)O [valproate]
[10]
  absorption by time of day: absorb it more slowly and less efficiently when they take it in the evening than in the morning

## c1cnc2cc3c(cc2n1)[C@@H]1CNC[C@H]3C1 [varenicline]
smoking
  chances of quitting smoking: can more than double the chances of quitting smoking
